The subject of this assay is HT-29 cells. Description: HT-29 necroptosis cell viability assay (TNF-α/SMAC mimetic/zVAD-FMK, CellTiter-Glo). Type of assay: cell-based. The settings on record: Homo sapiens; HT-29 cells stimulated with TNF-α (10 ng/ml), SMAC mimetic (6 μM) and zVAD-FMK (10 μM); 20 hours; CellTiter-Glo ATP luminescence; geometric mean IC50 from 10 points; read-out: Activity. As to the method:
Compounds 1-702 of the disclosure were tested for biological activity, following the experimental procedures described below.
• Cell line: HT-29 (ATCC® HTB-38™) • Culture medium: McCOY's 5A, Gibco, Cat No. 16600-082 • FBS, Gibco, Cat No. 10099-141 C • Trypsin: Gibco, Cat No. 25200-056 • DMSO: Sigma, Cat No. 67-68-5, 1L • Assay plate: Corning #3903 • Compound dilution plate: Corning #3357 • Inducers: TNFα, GenScript, Cat No. Z01001-50, • SmacM, Cat. No., HY-15989, MedChemExpress (MCE) • Z_VAD FMK, TargetMol, T6013 • Cell Titer-Glo® Luminescent Cell Viability Assay Kit: Promega, Cat No. G7573 • EnVision: PerkinElmer, 2105-0010
• 1. HT-29 cells were checked every day to make sure that they were healthy and growing as expected. They were subjected to sub-culturing when they were approximately 80% confluent. • 2. The culture medium, McCOY's 5A medium (Gibco, Cat No. 16600-082) with 10% fetal bovine serum or FBS (Gibco, Cat No. 10099-141C), was pre-warmed in a 37° C. water bath for at least 30 min. • 3. When the cells had reached a desired level of confluency of 80% in a T75 flask, the medium was aspirated, and the cells were washed with warm phosphate buffered saline or PBS two times. • 4. 2-3 ml fresh warm trypsin (Gibco, Cat No. 25200-056) solution was added to the washed cells. The flask with the cells was transferred to a 37° C. incubator. • 5. After 5 minutes, the side of the flask was tapped, and the flask was examined under a microscope for detachment of the cells to the flask. If necessary, the cells were kept in the incubator for an additional 5-10 minutes, with occasional tapping, until lifting was complete. • 6. The trypsin reaction was neutralized by transferring 6-9 ml cell culture medium to sterile 15 ml conical tubes, and by centrifuging the cell culture at 300×g for 7 minutes to pellet the cells (supernatant decanted). • 7. The cells were resuspended in fresh cell culture medium and the cell counting was performed using a hemocytometer. • 8. 100 μl of the resuspended cell culture medium containing ˜5,000 cells were transferred into each well of the sterile 96-well cell culture plate (Corning 3903) and cultured overnight at 37° C. with 5% CO2.
• 1. All test compounds were dissolved in DMSO (Dimethyl sulfoxide) to create a 20 mM stock. • 2. 3 μl of 20 mM stock of each compound was mixed with 27 μl DMSO, and the compound solution was further diluted at a titration ratio of 1:3 (20 μl compound solution+40 μl DMSO) till the 10 points end. • 3. All culture medium was removed from assay plates filled with HT-29 cell cultures. The cells were then washed with 1 PBS, and resuspsended in fresh, FBS-free McCOY's 5A medium containing a cocktail of TNF-α (10 ng/ml), a SMAC mimetic compound (6 μM) and Z-VAD-fluoromethylketone or zVAD-FMK (10 μM) to stimulate the HT-29 cells to increase RIP1 kinase levels and necroptosis. • 4. 0.5 μL of the diluted compound solution was added to the corresponding 96-well assay plates. • 5. The assay plates were incubated for 20 hours at 37° C. with 5% CO2.
• 1. The CellTiter-Glo® Luminescent Cell Viability Assay was employed to detect the ATP levels of viable HT-29 cells. • 2. The CellTiter-Glo® buffer and the lyophilized substrate were equilibrated to room temperature prior to use. • 3. The CellTiter-Glo® substrate was resuspended with CellTiter-Glo® buffer, then mixed by gently vortexing to obtain a homogeneous solution. • 4. 20 μl of the enzyme/substrate mixture was transferred by multi-channel pipetting into 96-well assay plates. • 5. The assay plates were placed on an orbital shaker and the contents were shaken for 3 minutes to induce cell lysis. • 6. The assay plates were incubated at room temperature for 10 minutes to stabilize the luminescent signal. • 7. The luminescence signals were read and recorded with EnVision. • 8. The geometric mean IC50 values were calculated from 10 points response dose with duplicates. […]

`Cc1cc(C(N)=O)oc1Oc1ccc(-n2nc3n(c2=O)[C@H](c2ccccc2)CC3)cc1F` (single isomer, unassigned) [Example 694]: the IC50 is below 100 nM.
Take `Cc1c(C(N)=O)noc1Oc1ccc(-n2nc3n(c2=O)[C@H](c2ccccc2)CC3)cc1F` (single isomer, unassigned) [Example 695]: the IC50 is below 100 nM.
On to `Cc1oc(C(N)=O)nc1Oc1ccc(-n2nc3n(c2=O)[C@H](c2ccccc2)CC3)cc1F` (single isomer, unassigned) [Example 696], for which the IC50 is below 100 nM.
Take `Cc1cc(C(N)=O)n(C)c1Oc1ccc(-n2nc3n(c2=O)[C@H](c2ccccc2)CC3)cc1F` (single isomer, unassigned) [Example 697]: the IC50 was below 100 nM.
As for `Cc1nc(C(N)=O)sc1Oc1ccc(-n2nc3n(c2=O)[C@H](c2ccccc2F)C[C@@H]3F)cc1F` (single isomer, unassigned) [Example 698], the IC50 is below 100 nM.
As for `Cn1nc(C(N)=O)cc1Oc1ccc(-n2nc3n(c2=O)[C@H](c2ccccc2F)C[C@@H]3F)cc1F` (single isomer, unassigned) [Example 699], the IC50 is below 100 nM.
Regarding `Cc1nc(C(N)=O)sc1Oc1ccc(-n2nc3n(c2=O)[C@H](c2cncc(F)c2)CC3)cc1F` (single isomer, unassigned) [Example 700], the IC50 was below 100 nM.
For `Cc1nc(C(N)=O)oc1Oc1ccc(-n2nc3n(c2=O)[C@H](c2c(F)cccc2F)CC3)cc1F` (single isomer, unassigned) [Example 701] the value was below 100 nM; for `Cc1nc(C(N)=O)sc1Oc1ccc(-n2nc3n(c2=O)[C@H](C2CCCC2)CC3)cc1F` (single isomer, unassigned) [Example 702], below 100 nM.
For the molecule `Cc1nc(Br)sc1Oc1ccc(-n2ncn(Cc3c(F)cccc3F)c2=O)cc1F` [Example 1, 2-(4-((2-bromo-4-methylthiazol-5-yl)oxy)-3-fluorophenyl)-4-(2,6-difluorobenzyl)-2,4-dihydro-3H-1,2,4-triazol-3-one], the IC50 is below 100 nM.
Turning to `Cc1ncsc1Oc1ccc(-n2ncn(Cc3c(F)cccc3F)c2=O)cc1F` [Example 2, 4-(2,6-difluorobenzyl)-2-(3-fluoro-4-((4-methylthiazol-5-yl)oxy)phenyl)-2,4-dihydro-3H-1,2,4-triazol-3-one], the IC50 was below 100 nM.
As for `Cc1ncsc1Oc1ccc(-n2ncn(Cc3c(F)cccc3F)c2=O)cc1Cl` [Example 5, 2-(3-chloro-4-((4-methylthiazol-5-yl)oxy)phenyl)-4-(2,6-difluorobenzyl)-2,4-dihydro-3H-1,2,4-triazol-3-one], the IC50 was below 100 nM.
Regarding `Cc1nc(Br)sc1Oc1ccc(-n2ncn(Cc3ccccc3C#N)c2=O)cc1F` [Example 6, 2-((1-(4-((2-bromo-4-methylthiazol-5-yl)oxy)-3-fluorophenyl)-5-oxo-1-5-dihydro-4H-1,2,4-triazol-4-yl)methyl)benzonitrile], the IC50 lay in the range of 100 to 1000 nM.
With `Cc1nc(Br)sc1Oc1ccc(-n2ncn(Cc3c(F)cccc3C#N)c2=O)cc1F` [Example 7, 2-((1-(4-((2-bromo-4-methylthiazol-5-yl)oxy)-3-fluorophenyl)-5-oxo-1,5-dihydro-4H-1,2,4-triazol-4-yl)methyl)-3-fluorobenzonitrile], the IC50 was below 100 nM.
In the case of `Cc1ncsc1Oc1ccc(-n2ncn(Cc3ccccc3F)c2=O)cc1F` [Example 8, 2-(3-fluoro-4-((4-methylthiazol-5-yl)oxy)phenyl)-4-(2-fluorobenzyl)-2,4-dihydro-3H-1,2,4-triazol-3-one], the IC50 was below 100 nM.
Turning to `Cc1ncsc1Oc1ccc(-n2ncn(Cc3cc(Cl)ccn3)c2=O)cc1F` [Example 9, 4-((4-chloropyridin-2-yl)methyl)-2-(3-fluoro-4-((4-methylthiazol-5-yl)oxy)phenyl)-2,4-dihydro-3H-1,2,4-triazol-3-one], the IC50 lay in the range of 100 to 1000 nM.
Take `COC(=O)c1nc(C)c(Oc2ccc(-n3ncn(Cc4cc(Cl)ccn4)c3=O)cc2F)s1` [Example 10, methyl 5-(4-(4-((4-chloropyridin-2-yl)methyl)-5-oxo-4,5-dihydro-1H-1,2,4-triazol-1-yl)-2-fluorophenoxy)-4-methylthiazole-2-carboxylate]: the IC50 was 1000 to 10000 nM.
For the molecule `Cc1nc(Oc2ccncc2)sc1-n1ncn(Cc2c(F)cccc2F)c1=O` [Example 11, 4-(2,6-difluorobenzyl)-2-(4-methyl-2-(pyridin-4-yloxy)thiazol-5-yl)-2,4-dihydro-3H-1,2,4-triazol-3-one], the IC50 was above 10000 nM.
To `O=c1n(-c2ccc(Oc3cc(Cl)ncc3F)c(F)c2)nc2n1C(c1ccccc1)CC2` (centres unmarked) [Example 12, 2-(4-((2-chloro-5-fluoropyridin-4-yl)oxy)-3-fluorophenyl)-5-phenyl-2,5,6,7-tetrahydro-3H-pyrrolo[2,1-c][1,2,4]triazol-3-one] belongs below 100 nM.
To `Cc1nc(C(N)=O)sc1Oc1ccc(-n2nc3n(c2=O)C(c2ccccc2)CC3)cc1F` (centres unmarked) [Example 13, 5-(2-fluoro-4-(3-oxo-5-phenyl-6,7-dihydro-3H-pyrrolo[2,1-c][1,2,4]triazol-2(5H)-yl)phenoxy)-4-methylthiazole-2-carboxamide] belongs below 100 nM; to `Cc1nc(C(=O)N2C[C@@H](C)O[C@@H](C)C2)sc1Oc1ccc(-n2nc3n(c2=O)[C@H](c2ccccc2)CC3)cc1F` [Example 20, (S)-2-(4-((2-((2S,6R)-2,6-dimethylmorpholine-4-carbonyl)-4-methylthiazol-5-yl)oxy)-3-fluorophenyl)-5-phenyl-2,5,6,7-tetrahydro-3H-pyrrolo[2,1-c][1,2,4]triazol-3-one], below 100 nM.
For `Cc1nc(C(=O)NC2COC2)sc1Oc1ccc(-n2nc3n(c2=O)[C@H](c2ccccc2)CC3)cc1F` [Example 21, (S)-5-(2-fluoro-4-(3-oxo-5-phenyl-6,7-dihydro-3H-pyrrolo[2,1-c][1,2,4]triazol-2(5H)-yl)phenoxy)-4-methyl-N-(oxetan-3-yl)thiazole-2-carboxamide] the value was below 100 nM.
Turning to `Cc1nc(C(=O)N2CCOCC2)sc1Oc1ccc(-n2ncn(Cc3c(F)cccc3F)c2=O)cc1F` [Example 22, 4-(2,6-difluorobenzyl)-2-(3-fluoro-4-((4-methyl-2-(morpholin-4-carbonyl)thiazol-5-yl)oxy)phenyl)-2,4-dihydro-3H-1,2,4-triazol-3-one], the IC50 was below 100 nM.
`Cc1c(C(N)=O)nn(C)c1Oc1ccc(-n2nc3n(c2=O)C(c2ccccc2)CC3)cc1F` (centres unmarked) [Example 23, 5-(2-fluoro-4-(3-oxo-5-phenyl-6,7-dihydro-3H-pyrrolo[2,1-c][1,2,4]triazol-2(5H)-yl)phenoxy)-1,4-dimethyl-1H-pyrazole-3-carboxamide]: the IC50 is below 100 nM.
In the case of `Cc1nc(C(=O)NCCN2CCOCC2)sc1Oc1ccc(-n2ncn(Cc3c(F)cccc3F)c2=O)cc1F` [Example 24, 5-(4-(4-(2,6-diflurobenzyl)-5-oxo-4,5-dihydro-1H-1,2,4-triazol-1-yl)-2-fluorophenoxy)-4-methyl-N-(2-morpholinoethyl)thiazole-2-carboxamide], the IC50 was below 100 nM.
Consider `Cc1nc(C(=O)NCCN2CCOCC2)sc1Oc1ccc(-n2ncn(Cc3ccccc3F)c2=O)cc1F` [Example 25, 5-(2-fluoro-4-(4-(2-fluorobenzyl)-5-oxo-4,5-dihydro-1H-1,2,4-triazol-1-yl)phenoxy)-4-methyl-N-(2-morpholinoethyl)thiazole-2-carboxamide], for which the IC50 was below 100 nM.

These data come from patent publication US20250179061A1 (SIRONAX LTD., priority 2022, published 2025).
